# US11685744B2, “CDK inhibitors and their use as pharmaceuticals” (Prelude Therapeutics, Incorporated, priority 2020, dated 2023)
# pIC50: −log10 of the molar value.
# Key:
# [1] = Brain-to-plasma ratio (Kp) determination in Sprague-Dawley rats; details: male, rat, po, 10 mg/kg
# Method: The brain-to-plasma ratio (Kp) was determined in male Sprague-Dawley rats (7-9 weeks old) four hours after a single oral dose. Rats were acclimated and given free access to standard rodent chow and water throughout the entire study. Test articles were formulated as a solution at 0.3, 0.4, 0.5, or 1.0 mg/mL in a vehicle comprised of 10:15:75 (v:v:v) dimethylacetamide (DMA):Solutol HS15:water and delivered orally at a rate of 10 mL/kg to three rats to achieve final doses of 3, 4, 5, or 10 mg/kg, respectively. At 4 hours post-dose, blood samples were collected via jugular vein cannula into tubes containing K2EDTA as the anticoagulant and stored on ice. Blood samples were then centrifuged at 4° C. at 6000 rpm for 5 minutes, and the resulting plasma was placed into tubes and stored frozen at −80° C. until analysis. Whole brain samples were also collected at 4 hours post-dose. The weight of each brain was measured and recorded, and samples were immediately stored on dry ice. Brain samples were then transferred to storage at −80° C. until analysis.
# Prior to analysis, brain samples were combined with water (4 mL/1 gram of brain) and homogenized. Prior to injection, plasma and brain homogenate samples and standards were prepared for analysis by precipitation with acetonitrile or 1:1 (v:v) methanol:acetonitrile. Samples were then thoroughly mixed, centrifuged at 4000 rpm for 15 minutes, and the resulting supernatant was transferred for analysis. Test article concentrations in plasma and brain homogenate were then determined by LC-MS/MS and quantified against calibration standards prepared to known concentrations in matched blank (analyte-free) biological matrix. The Kp was then determined by dividing the dilution-corrected brain concentration by the plasma concentration from each rat. A brain density of 1 gram/mL was assumed for all calculations.
# [2] = test system: MCF7 adenocarcinoma cell line; assay: Cell proliferation studies in MCF7 cells (ATP-Lite, 10 days); type: cell-based; details: Homo sapiens, 240 h, read-out: PROLIFERATION_CTG_MCF7 IC50
# Summary of the method: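 Cells were seeded at 100 or 200 per well in DMEM with 10% FBS and dosed in quadruplicate over a 9-point 3-fold dilution. Incubation lasted 10 days at 37 °C, with media exchange and re-dosing on day 5. Viability was read by ATP-Lite luminescence and normalised to background and DMSO, giving IC50.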
# CDK4/Cyclin D1 = CDK4/Cyclin D1 (Homo sapiens (Human), UniProt P11802); assay: CDK4/CyclinD1 enzymatic activity assay (TR-FRET); type: biochemical; details: ATP 2 mM, read-out: CDK4_D1 IC50
# Summary of the method: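 Insect-cell CDK4/Cyclin D1 (1 nM) with ULight-4E-BP1 (100 nM) and 2 mM ATP in HEPES pH 7.4 buffer, preincubated 20 min with compound (9-dose, 3-fold dilutions); 10 mM MgCl2 started the reaction, run 60 min at 37 °C. EDTA/Eu-anti-phospho-4E-BP1 TR-FRET detection; IC50 from 4-parameter Hill fit.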
# CDK6/Cyclin D1 = CDK6/Cyclin D1 (Homo sapiens (Human), UniProt Q00534); assay: CDK6/CyclinD1 enzymatic activity assay (TR-FRET); type: biochemical; details: ATP 250 μM, read-out: CDK6_D1 IC50
# Summary of the method: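 Insect-cell-expressed CDK6/Cyclin D1 (1 nM) phosphorylated ULight-4E-BP1 (100 nM) with 250 μM ATP in HEPES pH 7.4 buffer. After 20 min compound preincubation, reactions were started with 10 mM MgCl2 and run 60 min at 37 °C. EDTA-quenched samples were read by TR-FRET with Eu-anti-P-4E-BP1; IC50 from 9-dose 4-parameter fits.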
# [3] = brain (homogenate) versus plasma
# Sequence of CDK6/Cyclin D1 (Q00534 whole entry): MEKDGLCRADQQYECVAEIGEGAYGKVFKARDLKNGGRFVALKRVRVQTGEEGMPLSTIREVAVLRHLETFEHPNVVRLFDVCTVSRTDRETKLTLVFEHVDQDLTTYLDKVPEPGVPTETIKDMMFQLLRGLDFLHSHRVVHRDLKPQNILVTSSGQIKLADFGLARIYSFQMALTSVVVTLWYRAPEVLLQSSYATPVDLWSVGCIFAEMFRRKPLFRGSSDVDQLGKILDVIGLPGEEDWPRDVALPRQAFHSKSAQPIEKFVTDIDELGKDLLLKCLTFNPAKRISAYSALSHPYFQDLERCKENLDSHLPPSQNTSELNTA
# Sequence of CDK6/Cyclin D1 (P24385 whole entry partner): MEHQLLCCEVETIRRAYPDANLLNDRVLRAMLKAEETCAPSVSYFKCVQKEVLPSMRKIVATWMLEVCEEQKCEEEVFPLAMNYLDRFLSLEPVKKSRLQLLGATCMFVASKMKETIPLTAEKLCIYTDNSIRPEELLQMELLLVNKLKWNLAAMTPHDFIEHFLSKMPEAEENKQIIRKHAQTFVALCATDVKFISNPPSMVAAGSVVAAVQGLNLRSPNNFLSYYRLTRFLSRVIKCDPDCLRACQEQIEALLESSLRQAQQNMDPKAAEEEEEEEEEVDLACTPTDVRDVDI
# Sequence of CDK4/Cyclin D1 (P11802 whole entry): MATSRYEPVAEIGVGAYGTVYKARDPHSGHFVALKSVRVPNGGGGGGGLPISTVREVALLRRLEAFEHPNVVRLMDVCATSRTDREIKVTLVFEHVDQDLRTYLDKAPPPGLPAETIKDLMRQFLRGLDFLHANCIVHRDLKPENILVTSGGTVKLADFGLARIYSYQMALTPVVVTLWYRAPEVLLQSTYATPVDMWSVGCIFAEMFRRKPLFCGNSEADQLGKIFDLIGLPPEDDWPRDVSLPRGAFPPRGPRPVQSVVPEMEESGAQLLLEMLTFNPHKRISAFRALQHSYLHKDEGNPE
# Sequence of CDK4/Cyclin D1 (P24385 whole entry partner): as the sequence (P24385 whole entry partner) above
Structure (SMILES),"Kp at 4 h [1, 3]",pIC50 [2],pIC50 (CDK4/Cyclin D1),pIC50 (CDK6/Cyclin D1),Kp at 4 h ([1]; brain / plasma)
"Cc1c(-c2nc(Nc3ccc(C4CCN(C(C)C)C4)cn3)ncc2F)sc2c(C(C)C)cn(C)c(=O)c12 (stereo not drawn) [Example 95, 2-(5-Fluoro-2-((5-(1-isopropylpyrrolidin-3-yl)pyridin-2-yl)amino)pyrimidin-4-yl)-7-isopropyl-3,5-dimethylthieno[3,2-c]pyridin-4(5H)-one]",1 to 3,6.70 to 7.70,≥ 7.70,6.70 to 7.70,
"Cc1cnc(Nc2ccc(C3CCN(C)CC3)cn2)nc1-c1cc2c(=O)n(C)cc(C(C)C)c2s1 [Example 97, 7-Isopropyl-5-methyl-2-(5-methyl-2-((5-(1-methylpiperidin-4-yl)pyridin-2-yl)amino)pyrimidin-4-yl)thieno[3,2-c]pyridin-4(5H)-one]",< 1,≥ 7.70,≥ 7.70,≥ 7.70,
"CC(C)c1c2sc(-c3nc(Nc4ccc(C5CCN(C)CC5)cn4)ncc3F)cc2nn1C [Example 99, 5-Fluoro-4-(3-isopropyl-2-methyl-2H-thieno[3,2-c]pyrazol-5-yl)-N-(5-(1-methylpiperidin-4-yl)pyridin-2-yl)pyrimidin-2-amine]",> 3,6.70 to 7.70,≥ 7.70,6.70 to 7.70,
"CCN1CCN(c2ccc(Nc3ncc(F)c(-c4sc5c(C(C)(O)C(F)(F)F)n(C)nc5c4C)n3)nc2)CC1 (stereo not drawn) [Example 102, 2-(5-(2-((5-(4-Ethylpiperazin-1-yl)pyridin-2-yl)amino)-5-fluoropyrimidin-4-yl)-2,6-dimethyl-2H-thieno[3,2-c]pyrazol-3-yl)-1,1,1-trifluoropropan-2-ol]",1 to 3,6.70 to 7.70,≥ 7.70,≥ 7.70,
"CCN1CC2(CC(c3ccc(Nc4ncc(F)c(-c5cc6nc(C)n(C(C)C)c6s5)n4)nc3)C2)C1 [Example 112, N-(5-(2-Ethyl-2-azaspiro[3.3]heptan-6-yl)pyridin-2-yl)-5-fluoro-4-(3-isopropyl-2-methyl-3H-thieno[2,3-d]imidazol-5-yl)pyrimidin-2-amine]",< 1,6.70 to 7.70,≥ 7.70,6.70 to 7.70,
"Cc1nc2cc(-c3nc(Nc4ccc(OC5CCN(C)C5)cn4)ncc3F)sc2n1C(C)C (stereo not drawn) [Example 114, 5-Fluoro-4-(2-methyl-3-propan-2-ylthieno[2,3-d]imidazol-5-yl)-N-[5-(1-methylpyrrolidin-3-yl)oxypyridin-2-yl]pyrimidin-2-amine]",,6.70 to 7.70,≥ 7.70,6.70 to 7.70,1 to 3
"Cc1nc2cc(-c3nc(Nc4ccc(C5CCN(C)CC5)cn4)ncc3C(F)(F)F)sc2n1C(C)C [Example 120, 4-(3-Isopropyl-2-methyl-3H-thieno[2,3-d]imidazol-5-yl)-N-(5-(1-methylpiperidin-4-yl)pyridin-2-yl)-5-(trifluoromethyl)pyrimidin-2-amine]",1 to 3,6.70 to 7.70,≥ 7.70,≥ 7.70,
"Cc1c(-c2nc(Nc3ccc(C4CCN(C)CC4)cn3)ncc2F)sc2c(C(C)C)cncc12 [Example 123, 5-Fluoro-N-[5-(1-methylpiperidin-4-yl)pyridin-2-yl]-4-(3-methyl-7-propan-2-ylthieno[3,2-c]pyridin-2-yl)pyrimidin-2-amine]",> 3,6.70 to 7.70,≥ 7.70,6.70 to 7.70,
"CCN1CCN(Cc2ccc(Nc3ncc(F)c(-c4sc5c(ncn5C(C)C)c4C)n3)nc2)CC1 [Example 124, N-[5-[(4-Ethylpiperazin-1-yl)methyl]pyridin-2-yl]-5-fluoro-4-(6-methyl-3-propan-2-ylthieno[2,3-d]imidazol-5-yl)pyrimidin-2-amine]",1 to 3,6.70 to 7.70,≥ 7.70,≥ 7.70,
"CCN1CCC(c2ccc(Nc3ncc(F)c(-c4sc5c(ncn5C(C)C)c4C)n3)nc2)CC1 [Example 128, N-(5-(1-Ethylpiperidin-4-yl)pyridin-2-yl)-5-fluoro-4-(3-isopropyl-6-methyl-3H-thieno[2,3-d]imidazol-5-yl)pyrimidin-2-amine]",1 to 3,≥ 7.70,≥ 7.70,≥ 7.70,
"CCN1CC2(C1)CN(c1ccc(Nc3ncc(F)c(-c4cc5ncn(C(C)C)c5s4)n3)nc1)C2 [Example 129, N-(5-(6-ethyl-2,6-diazaspiro[3.3]heptan-2-yl)pyridin-2-yl)-5-fluoro-4-(3-isopropyl-3H-thieno[2,3-d]imidazol-5-yl)pyrimidin-2-amine]",1 to 3,≥ 7.70,≥ 7.70,≥ 7.70,
"Cc1c(-c2nc(Nc3ccc(C4CCCN(C)C4)cn3)ncc2Cl)sc2c1ncn2C(C)C (stereo not drawn) [Example 130, 5-Chloro-4-(3-isopropyl-6-methyl-3H-thieno[2,3-d]imidazol-5-yl)-N-(5-(1-methylpiperidin-3-yl)pyridin-2-yl)pyrimidin-2-amine]",1 to 3,6.70 to 7.70,≥ 7.70,6.70 to 7.70,
